The values below come from patent US11046714B2, “2,2-difluorodioxolo A2A receptor antagonists” (Merck Sharp & Dohme Corp., priority 2013, dated 2021).

One may read the pKi as the Ki on a negative log10 scale, so that one unit is a factor of ten.

For this test, the target named is human A2A receptor (Homo sapiens (Human), UniProt P29274). As to the kind of experiment: competition binding assay using Scintillation Proximity technology. Conditions: membranes from CHO-K1 cells expressing the human A2a receptor; 2.0 nM tritiated compound; Cheng-Prusoff. Summed up: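 Membranes (1.0 μg) from CHO-K1 cells expressing human A2A were treated with adenosine deaminase, then incubated 1 h at room temperature with compound (3000–0.15 nM) and 2.0 nM tritiated SCH-type ligand on WGA SPA beads in PBS plus 10 mM MgCl2. Nonspecific binding was defined with 1 μM CGS 15943. Ki was derived from EC50 via Cheng-Prusoff.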
human A2A receptor, sequence (P29274 whole entry): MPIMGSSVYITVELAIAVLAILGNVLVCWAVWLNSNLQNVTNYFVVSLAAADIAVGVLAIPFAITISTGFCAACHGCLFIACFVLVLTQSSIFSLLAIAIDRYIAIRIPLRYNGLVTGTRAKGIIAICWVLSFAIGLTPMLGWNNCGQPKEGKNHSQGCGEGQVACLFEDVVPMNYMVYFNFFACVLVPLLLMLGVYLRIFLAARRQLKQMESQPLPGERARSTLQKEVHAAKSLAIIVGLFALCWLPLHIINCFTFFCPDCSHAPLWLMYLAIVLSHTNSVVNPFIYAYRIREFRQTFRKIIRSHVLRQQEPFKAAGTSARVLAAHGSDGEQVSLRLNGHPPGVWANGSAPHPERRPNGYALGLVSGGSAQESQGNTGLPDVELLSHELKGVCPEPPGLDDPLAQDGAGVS
Background: In a scintillation proximity assay essentially only radioactivity close to the scintillant gives light.

SMILES strings stand for the structures. pKi: −log10 of the molar value.

In turn, `C[C@@H]1CC[C@@H](C)N1CCc1nc2c3ccc4c(c3nc(N)n2n1)OC(F)(F)O4` [Example 34, 8-{2-[(2R,5R)-2,5-dimethylpyrrolidin-1-yl]ethyl}-2,2-difluoro[1,3]dioxolo[4,5-h][1,2,4]triazolo[1,5-c]quinazolin-5-amine] gave a negative logarithm of the Ki (pKi) of 7.96.
Then `C[C@@H]1CC(F)(F)CN1CCc1nc2c3ccc4c(c3nc(N)n2n1)OC(F)(F)O4` [Example 25], with 8.96; and `Cc1nc2c(s1)CN([C@H](C)Cc1nc3c4ccc5c(c4nc(N)n3n1)OC(F)(F)O5)CC2` [Example 80, 2,2-difluoro-8-[(2R)-2-(2-methyl-6,7-dihydro[1,3]thiazolo[5,4-c]pyridin-5(4H)-yl)propyl][1,3] dioxolo[4,5-h][1,2,4]triazolo [1,5-c]quinazolin-5-amine], with 8.59.
Then `CCc1nnc2n1CCN(CCc1nc3c4ccc5c(c4nc(N)n3n1)OC(F)(F)O5)C2` [Example 10, 8-[2-(3-ethyl-5,6-dihydro[1,2,4]triazolo[4,3-a]pyrazin-7(8H)-yl)ethyl]-2,2-difluoro[1,3]dioxolo[4,5-h][1,2,4]triazolo[1,5-c]quinazolin-5-amine], with 8.80; and `Nc1nc2c3c(ccc2c2nc(CN4Cc5ccc(C(F)(F)F)cc5C4)nn12)OC(F)(F)O3` [Example 123, 2,2-difluoro-8-{[5-(trifluoromethyl)-1,3-dihydro-2H-isoindol-2-yl]methyl} [1,3]dioxolo[4,5-h][1,2,4]triazolo[1,5-c]quinazolin-5-amine], with 8.31.
Then `Nc1nc2c3c(ccc2c2nc(CC4CCN(CCC(F)(F)F)C4)nn12)OC(F)(F)O3` (single isomer, unassigned) [Example 154, (R or S)-2,2-difluoro-8-{[1-(3,3,3-trifluoropropyl)pyrrolidin-3-yl]methyl}[1,3]dioxolo[4,5-h][1,2,4]triazolo[1,5-c]quinazolin-5-amine], with 7.70; and `Nc1nc2c3c(ccc2c2nc(Cn4nc(C(F)(F)F)cc4C(F)(F)F)nn12)OC(F)(F)O3` [Example 130, 8-{[3,5-bis(trifluoromethyl)-1H-pyrazol-1-yl]methyl}-2,2-difluoro [1,3]dioxolo[4,5-h][1,2,4]triazolo [1,5-c]quinazolin-5-amine], with 8.41.
Consider `Nc1nc2c3c(ccc2c2nc(CN4CC(O)(C(F)(F)F)C4)nn12)OC(F)(F)O3` [Example 113, 11-[(5-amino-2,2-difluoro[1,3]dioxolo [4,5-h][1,2,4]triazolo[1,5-c]quinazolin-8-yl)methyl]-3-(trifluoromethyl) azetidin-3-ol], for which the pKi is 8.55.
Then `Nc1nc2c3c(ccc2c2ncnn12)OC(F)(F)O3` [Example 1, 2,2-difluoro-[1,3]dioxolo[4,5-h][1,2,4]triazolo[1,5-c]quinazolin-5-amine], with 7.92; and `Nc1nc2c3c(ccc2c2nc(CCN4CCCC(F)(C(F)(F)F)C4)nn12)OC(F)(F)O3` (single isomer, unassigned) [Example 73, (R or S)-2,2-difluoro-8-(2-(3-fluoro-3-(trifluoromethyl)piperidin-1-yl)ethyl)-[1,3]dioxolo[4,5-h][1,2,4]triazolo[1,5-c]quinazolin-5-amine], with 9.05.
Then `Nc1nc2c3c(ccc2c2nc(Cn4cccn4)nn12)OC(F)(F)O3` [Example 128, 8-((1H-pyrazol-1-yl)methyl)-2,2-difluoro-[1,3]dioxolo[4,5-h][1,2,4]triazolo[1,5-c]quinazolin-5-amine], with 8.60; and `C[C@@H]1CN(CCc2nc3c4ccc5c(c4nc(N)n3n2)OC(F)(F)O5)C[C@@H](C)O1` [Example 63, 8-{2-[(2R,6R)-2,6-dimethylmorpholin-4-yl]ethyl}-2,2-difluoro[1,3]dioxolo[4,5-h][1,2,4] triazolo[1,5-c]quinazolin-5-amine], with 7.44.
For the compound `Nc1nc2c3c(ccc2c2nc(CC4CN(C5CCC5)C4)nn12)OC(F)(F)O3` [Example 151, 8-[(1-cyclobutylazetidin-3-yl)methyl]-2,2-difluoro[1,3]dioxolo[4,5-h][1,2,4]triazolo[1,5-c]quinazolin-5-amine], the negative logarithm of the Ki (pKi) was 7.19. Against the preceding compound, the pKi is 0.25 log units lower.
